Measured values: patent US6603046B1, “Bis-aromatic a,β-unsaturated ketones” (Lica Pharmaceuticals A/S, priority 1992, dated 2003)
In brackets after ≈: the same amount, converted by molar mass.

Legend:
[1] = system: M. tuberculosis; assay: Radiometric MIC/MBC (Example 19); format: cell-based
Protocol: 63 strains of mycobacteria were used in this study. The bacteria were grown in Dubos broth media before susceptibility testing. Licochalcone A was isolated as described in Example 1. Licochalcone A was dissolved in dimethyl sulfoxide (DMSO) and diluted in distilled water to the desired concentration.
Susceptibility testing was performed radiometrically by using a BECTEC 460-TB apparatus (Becton Dickinson) in a confined atmosphere (5% CO2). […] The growth was expressed as a numerical value called the growth index (GI) which ranged from 1 to 999. The 7H12 vials were inoculated with 0.1 ml of an appropriately diluted Dubos broth culture to give a final inoculum of about 5×10^4 colony-forming units (CFU) per ml together with 0.1 ml of different concentrations of licochalcone A. The final concentrations of licochalcone A tested ranged from 1.25 μg/ml to 80 μg/ml. A vial without licochalcone A, but with an inoculum diluted 1:100, was included as a control. The final inoculum was determinate by culturing 0.1 ml from the control vial onto one Lowenstein-Jensen slant. The vials were incubated under stationary conditions at 35° C. and growth was monitored by daily GI determination for 7 days. At day 7, 0.1 ml from each vial with a GI reading <30 was cultured onto one Lowenstein-Jensen slant. Colony counts were enumerated after incubation at 35° C. for 3 weeks.

[2] = system: L. major; assay: In vivo growth of L. major in BALB/c mice (Example 8); set-up: key to amastigotes findings on the impression smear, Spleen / amastigotes findings on the impression smear, Liver: −: no parasite amastigotes detected in 5 fields of microscopical vision; +: parasite amastigotes from 5 fields of microscopical vision < 100; ++: parasite amastigotes from 5 fields of microscopical vision = 100-500; +++: parasite amastigotes from 5 fields of microscopical vision = 500-1000; conditions: for parasitic load of the footpad, 3H-thymidine uptake (mean) / parasitic load of the liver, 3H-thymidine uptake (mean): 42 days
Protocol: Mice. BALB/c female mice aged eight weeks old were used throughout. Parasite. The maintenance, cultivation, and isolation of the promastigote-stage of the parasite L. major (WHO reference vaccine strain) have been described in detail in Example 4. […] The lesions that developed in the footpad were measured with a dial-calliper and expressed as footpad thickness increase (in mm). The footpad thickness of mice was measured before infection and every 3 days after 7 days of infection. From 7 days of infection, mice received licochalcone A injections i.p. or intralesionally once a day. After 42 days of licochalcone A injection, some of the mice were killed and the footpads, spleens and livers removed. The parasite loads in the footpads and livers were estimated by a modification of the method described by Liew et al. 1990. […] Incubation was carried out at 28° C. for 3 days and then pulsed with 1 μCi of ^3H-thymidine. Cultures were harvested 18 h later on filter paper by a cell harvester (Skatron, Lierbyen, Norway), extensively washed with distilled water and counted in a scintillation counter (Minaxi Ti-Carb 4000, United Technologies, Packard, USA). The results were expressed as cpm. The footpads, spleens and livers impression was also estimated. Drugs. One mg of licochalcone A was dissolved in 20 μl of 99% (v/v) ethanol, and then 980 μl of medium 199 was added an the resulting mixture was stored at −20° C. before use.

[3] = system: human PMN; assay: Zymosan-enhanced chemiluminescence, PMN; format: cell-based; conditions: read-out: percentage inhibition of chemiluminescence response to opsonized zymosan (mean ± SEM)
Protocol: Chemiluminescence. Monocytes were prepared from heparinized blood by metrizoate sodium-Ficoll (the same as lymphocyte proliferation). Polymorphonuclear leucocytes (PMN) were prepared from heparinized blood by dextran sedimentation and metrizoate sodium-Ficoll separation. Remaining erythrocytes were removed by hypotonic lysis. A zymosan-enhanced chemiluminescence assay was used. The assay was performed in a total volume of 5.5 ml at ambient temperature in glass scintillation vials. A Beckman L 8000 scintillation counter (placed under air-conditioned, thermostat controlled, 21±1° C. conditions) was used in the out-of-coincidence mode A 1.1 ml portion of PMN or monocyte suspension (1×10^6 cells per ml) was pre-incubated with 1.1 ml of various concentrations of licochalcone A for 30 min at 37° C. in a rotor at 20 rpm Luminol (5-amino-2,3-dihydro-1,4-phatalazinedione) obtained from Sigma Chemical Co., St Louis, Mo., U.S.A., was maintained as a stock solution of 10 mg/ml in NaOH (0.1 N) and diluted in Krebs-Ringer solution immediately before use. Each vial contained 5×10^5 pre-incubated PMN or monocyte, 4 mg of opsonized zymosan (Sigma), 50 μl of luminol solution, and 4.45 ml of Krebs-Ringer solution containing 5 mM glucose. The final concentration of luminol in the assay mixture was 5×10^−8m.

[4] = system: chloroquine resistant P. falciparum DD2 strain; assay: In vitro growth of P. falciparum DD2, 3H-hypoxanthine uptake (Example 15); format: cell-based, Plasmodium falciparum; conditions: for Growth in % of control (mean ± SEM): title: percentage inhibition of 3H-hypoxanthine uptake
[5] = system: L. donovani; assay: L. donovani infection in hamsters (Example 9); format: in vivo, syrian golden hamsters (Mesocricetus auratus); conditions: i.p. 10 mg per kg two times per day for 7 days
[6] = system: Bacillus subtilis; assay: MIC, macrodilution (Example 17); format: cell-based; conditions: 1 strain
[7] = system: BCG; format: cell-based; conditions: n = 3
[8] = system: human monocytes/macrophages; assay: Electron microscopy of human monocytes/macrophages with and without ingested L. major (Example 12); conditions: for ultrastructure of macrophage: macrophage alone

## C=CC(C)(C)c1cc(/C=C/C(=O)c2ccc(O)cc2)c(OC)cc1O [Licochalcone A, licochalcone A]
[1]; n = 2
  meanMIC (second line): meanMIC = 40 μg/ml (n = 2)
[1]; n = 19
  meanMIC: meanMIC = 7.1 μg/ml
  rangeMIC: rangeMIC = 5-10 μg/ml (n = 19)
[2]; 20 μg intralesional
  amastigotes findings on the impression smear, Footpad: + (parasite amastigotes from 5 fields of microscopical vision < 100)
  amastigotes findings on the impression smear, Liver: + (parasite amastigotes from 5 fields of microscopical vision < 100)
  amastigotes findings on the impression smear, Spleen: + (parasite amastigotes from 5 fields of microscopical vision < 100)
[2]; 20 μg intralesional once a day
  parasitic load of the footpad, 3H-thymidine uptake (mean): 243.5 ×10^3 cpm
  parasitic load of the liver, 3H-thymidine uptake (mean): 10.8 ×10^3 cpm
[2]; 50 μg i.p.
  amastigotes findings on the impression smear, Footpad: + (parasite amastigotes from 5 fields of microscopical vision < 100)
  amastigotes findings on the impression smear, Liver: −
  amastigotes findings on the impression smear, Spleen: −
[2]; 50 μg i.p. once a day
  parasitic load of the footpad, 3H-thymidine uptake (mean): 58.0 ×10^3 cpm
  parasitic load of the liver, 3H-thymidine uptake (mean): 11.7 ×10^3 cpm
[2]; 50 μg intralesional
  amastigotes findings on the impression smear, Footpad: + (parasite amastigotes from 5 fields of microscopical vision < 100)
  amastigotes findings on the impression smear, Liver: + (parasite amastigotes from 5 fields of microscopical vision < 100)
  amastigotes findings on the impression smear, Spleen: + (parasite amastigotes from 5 fields of microscopical vision < 100)
[2]; 50 μg intralesional once a day
  parasitic load of the footpad, 3H-thymidine uptake (mean): 282.6 ×10^3 cpm
  parasitic load of the liver, 3H-thymidine uptake (mean): 20.8 ×10^3 cpm
[2]; 100 μg i.p.
  amastigotes findings on the impression smear, Footpad: + (parasite amastigotes from 5 fields of microscopical vision < 100)
  amastigotes findings on the impression smear, Liver: −
  amastigotes findings on the impression smear, Spleen: −
[2]; 100 μg i.p. once a day
  parasitic load of the footpad, 3H-thymidine uptake (mean): 89.0 ×10^3 cpm
  parasitic load of the liver, 3H-thymidine uptake (mean): 12.8 ×10^3 cpm
[3]; 1 μg/ml
  inhibition at 1 µg/mL: 2.1 ± 3.3%
[3]; 2 μg/ml
  inhibition at 2 µg/mL: 10.3 ± 3.3%
[3]; 5 μg/ml
  inhibition at 5 µg/mL: 18.9 ± 3.7%
[3]; 10 μg/ml
  inhibition at 10 µg/mL: 29.7 ± 4.8%
[3]; 20 μg/ml
  inhibition at 20 µg/mL: 47 ± 4.3%
[4]; Plasmodium falciparum, DD2, read-out: concentration in which parasite growth was retarded by 50%
  IC50: 0.5 to 1 µg/mL (≈ 1.48 to 2.96 µM)
[4]; 0.1 μg/ml
  Growth in % of control (mean ± SEM): 5.0 ± 2.0%
[4]; 0.5 μg/ml
  Growth in % of control (mean ± SEM): 41.0 ± 4.0%
[4]; 1 μg/ml
  Growth in % of control (mean ± SEM): 66.0 ± 3.0%
[4]; 5 μg/ml
  Growth in % of control (mean ± SEM): 98.0 ± 1.0%
[4]; 10 μg/ml
  Growth in % of control (mean ± SEM): 99.0 ± 0.0001%
[5]
  parasite load in the liver and the spleen: reduced to almost undetectable levels
[6]
  MIC: 4 µg/mL (≈ 11.8 µM)
[7]
  meanMIC: meanMIC = 8.6 μg/ml
  meanMIC (second line): meanMIC = 40 μg/ml (n = 3)
  rangeMIC: rangeMIC = 5-10 /ml (n = 3)
[8]; macrophage + L. major, 10 μg/ml
  intracellular amastigotes, electron microscopy: Most of the intracellular amastigotes were now killed
[8]; 5 μg/ml
  ultrastructure of macrophage: No changes compared to the control culture
[8]; 10 μg/ml
  ultrastructure of macrophage: No changes compared to the control culture
